Measured values taken from US7709521B2, “Substituted indole derivatives for pharmaceutical compositions for treating respiratory diseases” (AstraZeneca AB, priority 2003, dated 2010).

Biological target: T1, rhCRTh2 (Homo sapiens, UniProt Q9Y5Y4)
T1 construct: expressed in transfected cells; host or cells: HEK cells (membrane preparation)
T1 sequence (Q9Y5Y4 1-395): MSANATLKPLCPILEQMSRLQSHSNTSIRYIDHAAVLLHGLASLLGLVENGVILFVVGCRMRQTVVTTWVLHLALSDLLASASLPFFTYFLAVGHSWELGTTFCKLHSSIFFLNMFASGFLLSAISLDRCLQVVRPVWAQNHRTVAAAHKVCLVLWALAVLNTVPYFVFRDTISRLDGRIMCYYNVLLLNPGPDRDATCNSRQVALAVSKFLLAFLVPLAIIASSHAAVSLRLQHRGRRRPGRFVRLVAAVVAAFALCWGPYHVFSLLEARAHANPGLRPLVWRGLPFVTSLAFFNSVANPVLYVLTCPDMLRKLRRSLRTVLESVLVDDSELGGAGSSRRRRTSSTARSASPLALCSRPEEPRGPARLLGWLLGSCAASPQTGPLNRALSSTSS
Test: Ligand binding assay ([3H]PGD2 displacement, SPA, HEK cell membranes)
Conditions: [3H]PGD2 binding to membranes of HEK cells expressing rhCRTh2/Gα16, SPA beads, room temperature, 2 hours
Procedure: [^3H]PGD2 was purchased from Perkin Elmer Life Sciences with a specific activity of 100-210 Ci/mmol.
HEK cells expressing rhCRTh2/Gα16 were routinely maintained in DMEM containing 10% Foetal Bovine Serum (HyClone), 1 mg/ml geneticin, 2 mM L-glutamine and 1% non-essential amino acids. For the preparation of membranes, the adherent transfected HEK cells were grown to confluence in two layer tissue culture factories (Fisher, catalogue number TKT-170-070E). Maximal levels of receptor expression were induced by addition of 500 mM sodium butyrate for the last 18 hours of culture. The adherent cells were washed once with phosphate buffered saline (PBS, 50 ml per cell factory) and detached by the addition of 50 ml per cell factory of ice-cold membrane homogenisation buffer [20 mM HEPES (pH 7.4), 0.1 mM dithiothreitol, 1 mM EDTA, 0.1 mM phenyl methyl sulphonyl fluoride and 100 μg/ml bacitracin]. Cells were pelleted by centrifugation at 220×g for 10 minutes at 4° C., re-suspended in half the original volume of fresh membrane homogenisation buffer and disrupted using a Polytron homogeniser for 2×20 second bursts keeping the tube in ice at all times. […] The final pellet was re-suspended in 4 ml of membrane homogenisation buffer per cell factory used and the protein content determined. […]
All assays were performed in Corning clear bottomed, white 96-well NBS plates (Fisher). […] (The optimum coating concentrations were determined for each batch of membranes) The beads were pelleted by centrifugation (800×g for 7 minutes at 4° C.), washed once with assay buffer (50 mM HEPES pH 7.4 containing 5 mM magnesium chloride) and finally re-suspended in assay buffer at a bead concentration of 10 mg/ml.
Compounds and DK-PGD2 were dissolved in DMSO and diluted in the same solvent to 100× the required final concentration. […] The assay plate was incubated at room temperature for 2 hours and counted on a Wallac Microbeta liquid scintillation counter (1 minute per well).
In the case of `Cc1c(Oc2ccc(C(=O)O)cc2)c2cc(F)ccc2n1CC(=O)O` [Example 9, 3-(4-Carboxyphenoxy)-5-fluoro-2-methyl-1H-indole-1-acetic acid], the IC50 is reported as 178 nM. With `Cc1c(Oc2ccc(Cl)cc2)c2cc(C(F)(F)F)ccc2n1CC(=O)O` [Example 6, 3-(4-chlorophenoxy)-2-methyl-5-(trifluoromethyl)-1H-indole-1-acetic acid] the IC50 was 11.2 nM. `Cc1c(Oc2ccc(Cl)cc2)c2cc(S(C)(=O)=O)ccc2n1CC(=O)O` [Example 5, 3-(4-chlorophenoxy)-2-methyl-5-(methylsulfonyl)-1H-indole-1-acetic acid] gave an IC50 of 89.1 nM.

Test system: not given
Test: not given
Conditions: not given
Work on `COC(=O)c1ccc(Oc2c(C)n(CC(=O)O)c3ccc(F)cc23)cc1` [Example 14, 5-Fluoro-3-[4-(methoxycarbonyl)phenoxy]-2-methyl-1H-indole-1-acetic acid] yielded a melting point of 195 to 196 °C. For `CCNC(=O)c1ccc(Oc2c(C)n(CC(=O)O)c3ccc(F)cc23)cc1` [Example 11, 3-[4-[(Ethylamino)carbonyl]phenoxy]-5-fluoro-2-methyl-1H-indole-1-acetic acid], the melting point was 220 to 222 °C. Compound `Cc1c(Oc2ccc(C(=O)O)cc2)c2cc(Cl)ccc2n1CC(=O)O` [Example 13, 3-(4-Carboxyphenoxy)-5-chloro-2-methyl-1H-indole-1-acetic acid] has a melting point of 215 to 216 °C. Work on `Cc1c(Oc2ccc(C(=O)NC(C)C)cc2)c2cc(F)ccc2n1CC(=O)O` [Example 12, 5-Fluoro-2-methyl-3-[4-[[(1-methylethyl)amino]carbonyl]phenoxy]-1H-indole-1-acetic acid] yielded a melting point of 218 to 219 °C. In the case of `CNC(=O)c1ccc(Oc2c(C)n(CC(=O)O)c3ccc(Cl)cc23)cc1` [Example 16, 5-Chloro-2-methyl-3-[4-[(methylamino)carbonyl]phenoxy]-1H-indole-1-acetic acid], the melting point is reported as 225 °C (dec.). Compound `COC(=O)c1ccc(Oc2c(C)n(CC(=O)O)c3ccc(Cl)cc23)cc1` [Example 15, 5-Chloro-3-[4-(methoxycarbonyl)phenoxy]-2-methyl-1H-indole-1-acetic acid] has a melting point of 196 to 197 °C. In the case of `CCNC(=O)c1ccc(Oc2c(C)n(CC(=O)O)c3ccc(Cl)cc23)cc1` [Example 17, 5-Chloro-3-[4-[(ethylamino)carbonyl]phenoxy]-2-methyl-1H-indole-1-acetic acid], the melting point is reported as 220 °C (dec.). Work on `Cc1c(Oc2ccc(C(=O)NC(C)C)cc2)c2cc(Cl)ccc2n1CC(=O)[O-].[Na+]` [Example 18, Sodium 5-Chloro-2-methyl-3-[4-[[(1-methylethyl)amino]carbonyl]phenoxy]-1H-indole-1-acetate] yielded a melting point of under 275 °C. In the case of `Cc1c(Oc2ccc(S(C)(=O)=O)cc2)c2cc(F)ccc2n1CC(=O)O` [Example 2, 5-Fluoro-2-methyl-3-[4-(methylsulfonyl)phenoxy]-1H-indole-1-acetic acid], the melting point is reported as 204 to 207 °C. Compound `CNC(=O)c1ccc(Oc2c(C)n(CC(=O)O)c3ccc(F)cc23)cc1` [Example 10, 5-Fluoro-2-methyl-3-[4-[(methylamino)carbonyl]phenoxy]-1H-indole-1-acetic acid] has a melting point of 217 to 218 °C.
